Assay results: US11999727B2 (Tango Therapeutics, Inc., priority 2020, dated 2024)

Assays:
PRMT5 [1] = target: T1, PRMT5 (Homo sapiens, UniProt O14744); assay: PRMT5 biochemical IC50 assay with SAM as cofactor; details: PRMT5, SAM as cofactor; read-out: SAM IC50
T1 construct: purchased Viva (custom protein)

[2] = tested on: HAP1 MTAP-deleted cell line; assay: Viability assay, MTAP-deleted cell line; type: cell-based; details: Homo sapiens, HAP1, viability assay, MTAP-deleted cell line; read-out: HAP1 MTAP deleted viability
Description: Table 1 additionally indicates IC50 values in a viability assay for the MTAP-deleted cell line (column 10), indicating the effect of treatment with compound on cell survival.

PRMT5 [3] = target: T1, PRMT5; assay: PRMT5 biochemical IC50 assay with MTA as cofactor; details: PRMT5, MTA as cofactor; read-out: MTA IC50
[4] = tested on: HAP1 MTAP-intact cell line; assay: SDMA in-cell western assay, HAP1 MTAP-intact; type: cell-based; details: Homo sapiens, HAP1, SDMA in-cell western, HAP1 MTAP-intact; read-out: MTAP HAP1 intact IC50
In short: (§1)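 Isogenic HAP1 pair: the MTAP-intact line expresses endogenous MTAP, and the deleted line is MTAP-null. Symmetric dimethylarginine was detected by in-cell western and IC50 values derived for each line.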

PRMT5 [5] = target: T1, PRMT5; assay: PRMT5 biochemical IC50 assay with no cofactor; details: PRMT5, no cofactor; read-out: No Cofactor/rel IC50
Description: Table 1 indicates IC50 values (μM) against PRMT5 for exemplary compounds in the presence of SAM as cofactor, with no cofactor, and with MTA as cofactor, respectively (columns 4-6). […] Ki values can be calculated from the IC50 values as described in the Examples section. As detailed in the Examples section, for the assay performed in the presence of SAM, IC50=Ki×1.5 (Ki=IC50/1.5).

[6] = tested on: HAP1 MTAP-deleted cell line; assay: SDMA in-cell western assay, HAP1 MTAP-deleted; type: cell-based; details: for IC50: Homo sapiens, HAP1, SDMA in-cell western, HAP1 MTAP-deleted; for MTAP intact/deleted ratio: SDMA in-cell western
In short: as §1

[7] = read-out: HAP 1 MTAP deleted IC50
[8] = IC50 ratio HAP1 MTAP-intact / HAP1 MTAP-deleted
[9] = read-out: HAP1 MTAP deleted IC50
[10] = IC50 ratio HAP1 MTAP-intact vs HAP1 MTAP-deleted

T1 sequence (O14744 whole entry): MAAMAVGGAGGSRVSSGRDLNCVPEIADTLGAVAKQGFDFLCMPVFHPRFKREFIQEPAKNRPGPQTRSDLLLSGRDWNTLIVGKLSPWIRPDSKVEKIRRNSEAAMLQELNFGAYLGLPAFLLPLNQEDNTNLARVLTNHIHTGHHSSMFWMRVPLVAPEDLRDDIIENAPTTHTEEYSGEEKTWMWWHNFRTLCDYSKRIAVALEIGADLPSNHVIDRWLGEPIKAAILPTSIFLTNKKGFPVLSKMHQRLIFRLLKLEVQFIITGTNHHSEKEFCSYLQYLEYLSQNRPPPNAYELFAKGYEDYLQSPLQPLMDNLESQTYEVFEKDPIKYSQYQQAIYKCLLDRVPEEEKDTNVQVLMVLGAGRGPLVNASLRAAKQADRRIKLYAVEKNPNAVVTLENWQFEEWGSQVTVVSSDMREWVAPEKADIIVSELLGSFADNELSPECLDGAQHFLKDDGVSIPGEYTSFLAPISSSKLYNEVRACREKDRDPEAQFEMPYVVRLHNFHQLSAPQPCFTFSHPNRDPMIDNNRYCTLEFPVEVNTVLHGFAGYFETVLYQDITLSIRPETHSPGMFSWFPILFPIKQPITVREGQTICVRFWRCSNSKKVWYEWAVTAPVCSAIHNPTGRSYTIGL
T1 sequence (Q9BQA1 whole entry partner): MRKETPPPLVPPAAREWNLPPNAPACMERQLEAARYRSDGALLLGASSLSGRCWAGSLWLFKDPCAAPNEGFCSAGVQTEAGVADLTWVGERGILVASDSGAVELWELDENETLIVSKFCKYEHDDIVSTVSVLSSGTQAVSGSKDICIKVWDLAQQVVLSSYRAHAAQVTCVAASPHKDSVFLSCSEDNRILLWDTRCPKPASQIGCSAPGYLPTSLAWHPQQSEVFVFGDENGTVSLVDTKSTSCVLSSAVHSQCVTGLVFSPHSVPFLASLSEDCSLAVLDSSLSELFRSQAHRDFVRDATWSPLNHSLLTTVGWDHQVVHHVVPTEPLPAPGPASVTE

Row | SMILES | IC50 (PRMT5 [1]) [µM] | IC50 (PRMT5 [3]) [µM] | IC50 [4] [µM] | IC50 (PRMT5 [5]) [µM] | IC50 [6, 7] [µM] | IC50 [6, 9] [µM] | IC50 [2] [µM] | MTAP intact/deleted ratio [6, 8] | MTAP intact/deleted ratio [6, 10]
1 | COc1ncc(NC(=O)C(=O)N2C[C@H](C)CC[C@H]2c2ccc(C)cn2)cc1C(N)=O (racemic) [Compound 932, 2-Methoxy-5-[[2-[(2R,5S)-5-methyl-2-(5-methyl-2-pyridyl)-1-piperidyl]-2-oxo-acetyl]amino]pyridine-3-carboxamide] | 0.05 to 0.5 | 0.05 to 0.5 | > 1 | 0.05 to 0.5 | < 0.1 | – | 1 to 10 | A (an IC50 ratio greater than or equal to 10 fold) | –
2 | Cc1cc(NC(=O)C(=O)N2C[C@H](C)CC[C@H]2c2ccsc2)cnc1N (racemic) [Compound 977, rac-N-(6-Amino-5-methyl-3-pyridyl)-2-[(2R,5S)-5-methyl-2-(3-thienyl)-1-piperidyl]-2-oxo-acetamide] | 0.05 to 0.5 | 0.05 to 0.5 | 0.1 to 1 | 0.05 to 0.5 | < 0.1 | – | 1 to 10 | B (an IC50 ratio greater than or equal to 3 fold but lower than 10 fold) | –
3 | Cc1ccc([C@H]2CC[C@@H](C)CN2C(=O)C(=O)Nc2cnc(N)c(C)c2)nc1 (racemic) [Compound 982, N-(6-amino-5-methyl-3-pyridyl)-2-[(2R,5R)-5-methyl-2-(5-methyl-2-pyridyl)-1-piperidyl]-2-oxo-acetamide] | > 0.5 | 0.05 to 0.5 | > 1 | 0.05 to 0.5 | 0.1 to 1 | – | > 10 | B (an IC50 ratio greater than or equal to 3 fold but lower than 10 fold) | –
4 | Cc1cc(NC(=O)C(=O)N2C[C@H](C)CC[C@H]2c2ccc3[nH]c(N)nc3c2)cnc1C (racemic) [Compound 992] | 0.05 to 0.5 | < 0.05 | > 1 | 0.05 to 0.5 | < 0.1 | – | 1 to 10 | A (an IC50 ratio greater than or equal to 10 fold) | –
5 | Cc1ccc([C@@H]2CC[C@@H](C)CN2C(=O)C(=O)Nc2cnc(N)c(C)c2)nc1 (racemic) [Compound 1005, N-(6-Amino-5-methyl-3-pyridyl)-2-[(2R,5S)-5-methyl-2-(5-methyl-2-pyridyl)-1-piperidyl]-2-oxo-acetamide] | > 0.5 | 0.05 to 0.5 | > 1 | 0.05 to 0.5 | 0.1 to 1 | – | 1 to 10 | A (an IC50 ratio greater than or equal to 10 fold) | –
6 | [2H][C@]1(c2ccc(F)cc2)CC[C@H](C)CN1C(=O)C(=O)Nc1cncc(C(N)=O)c1 (racemic) [Compound 1008, 5-(2-(2-(4-fluorophenyl)-5-methylpiperidin-1-yl-2-d)-2-oxoacetamido)nicotinamide] | 0.05 to 0.5 | 0.05 to 0.5 | > 1 | 0.05 to 0.5 | 0.1 to 1 | – | 1 to 10 | A (an IC50 ratio greater than or equal to 10 fold) | –
7 | [2H]c1c([2H])c([C@@]2([2H])CC[C@H](C)CN2C(=O)C(=O)Nc2cncc(C(N)=O)c2)c([2H])c([2H])c1F (racemic) [Compound 1010, 5-(2-(2-(4-fluorophenyl-2,3,5,6-d4)-5-methylpiperidin-1-yl-2-d)-2-oxoacetamido)nicotinamide] | 0.05 to 0.5 | 0.05 to 0.5 | > 1 | 0.05 to 0.5 | 0.1 to 1 | – | 1 to 10 | A (an IC50 ratio greater than or equal to 10 fold) | –
8 | Cc1cc(NC(=O)C(=O)N2C[C@H](C)CC[C@H]2c2cncc(Cl)c2)cnc1N (racemic) [Compound 1025, N-(6-amino-5-methyl-3-pyridyl)-2-[(2R,5S)-2-(5-chloro-3-pyridyl)-5-methyl-1-piperidyl]-2-oxo-acetamide] | > 0.5 | 0.05 to 0.5 | > 1 | 0.05 to 0.5 | < 0.1 | – | 1 to 10 | A (an IC50 ratio greater than or equal to 10 fold) | –
9 | CC[C@@H]1CC[C@@H](c2cn[nH]c2)N(C(=O)C(=O)Nc2cnc(N)c(C)c2)C1 (racemic) [Compound 1032, N-(6-amino-5-methyl-3-pyridyl)-2-[(2R,5S)-5-ethyl-2-(1H-pyrazol-4-yl)-1-piperidyl]-2-oxo-acetamide] | 0.05 to 0.5 | 0.05 to 0.5 | 0.1 to 1 | 0.05 to 0.5 | < 0.1 | – | 1 to 10 | B (an IC50 ratio greater than or equal to 3 fold but lower than 10 fold) | –

Further lines, with some results ahead:

Row | IC50 (PRMT5 [1]) [µM] | IC50 (PRMT5 [3]) [µM] | IC50 [4] [µM] | IC50 (PRMT5 [5]) [µM] | IC50 [6, 7] [µM] | IC50 [6, 9] [µM] | SMILES | IC50 [2] [µM] | MTAP intact/deleted ratio [6, 8] | MTAP intact/deleted ratio [6, 10]
10 | 0.05 to 0.5 | 0.05 to 0.5 | > 1 | 0.05 to 0.5 | 0.1 to 1 | – | Cc1cc(NC(=O)C(=O)N2C[C@H](C)CC[C@H]2c2cnc3c(c2)CCC(=O)N3)cnc1N (racemic) [Compound 923, rac-N-(6-Amino-5-methyl-3-pyridyl)-2-[(2S,5R)-5-methyl-2-(7-oxo-6,8-dihydro-5H-1,8-naphthyridin-3-yl)-1-piperidyl]-2-oxo-acetamide] | 1 to 10 | A (an IC50 ratio greater than or equal to 10 fold) | –
11 | 0.05 to 0.5 | 0.05 to 0.5 | > 1 | 0.05 to 0.5 | 0.1 to 1 | – | Cc1ccc([C@H]2CC[C@H](C)CN2C(=O)C(=O)Nc2cncc(C(N)=O)c2)nc1 (racemic) [Compound 937, 5-[[2-[(2R,5S)-5-Methyl-2-(5-methyl-2-pyridyl)-1-piperidyl]-2-oxo-acetyl]amino]pyridine-3-carboxamide] | 1 to 10 | A (an IC50 ratio greater than or equal to 10 fold) | –
12 | 0.05 to 0.5 | 0.05 to 0.5 | > 1 | 0.05 to 0.5 | 0.1 to 1 | – | Cc1cc(NC(=O)C(=O)N2C[C@H](C)C[C@@H](F)[C@H]2c2ccc(F)cc2)cnc1N (racemic) [Compound 939, N-(6-amino-5-methyl-3-pyridyl)-2-[(2R,3R,5R)-3-fluoro-2-(4-fluorophenyl)-5-methyl-1-piperidyl]-2-oxo-acetamide] | 1 to 10 | A (an IC50 ratio greater than or equal to 10 fold) | –
13 | 0.05 to 0.5 | 0.05 to 0.5 | > 1 | 0.05 to 0.5 | 0.1 to 1 | – | Cc1cc(NC(=O)C(=O)N2C[C@H](C)C[C@H](F)[C@@H]2c2ccc(F)cc2)cnc1N (racemic) [Compound 940, N-(6-amino-5-methyl-3-pyridyl)-2-[(2R,3R,5S)-3-fluoro-2-(4-fluorophenyl)-5-methyl-1-piperidyl]-2-oxo-acetamide] | 1 to 10 | A (an IC50 ratio greater than or equal to 10 fold) | –
14 | 0.05 to 0.5 | 0.05 to 0.5 | > 1 | 0.05 to 0.5 | 0.1 to 1 | – | Cc1cc(NC(=O)C(=O)N2C[C@H](C)CC[C@H]2c2ccc(-c3nccs3)cn2)cnc1N (racemic) [Compound 991] | 1 to 10 | C (an IC50 ratio of less than 3 fold) | –
15 | 0.05 to 0.5 | 0.05 to 0.5 | > 1 | 0.05 to 0.5 | < 0.1 | – | Cc1cc(NC(=O)C(=O)N2C[C@H](C)CC[C@H]2c2ccc(F)c3[nH]ncc23)cnc1N (racemic) [Compound 1019] | 1 to 10 | A (an IC50 ratio greater than or equal to 10 fold) | –
16 | 0.05 to 0.5 | < 0.05 | 0.1 to 1 | < 0.05 | – | < 0.1 | CCc1cc(NC(=O)C(=O)N2C[C@@H](C)CC[C@@H]2c2ccc3nn([C@H]4CCN(C)C4)cc3c2)cnc1N (racemic) [Compound 1091, N-(6-Amino-5-ethyl-3-pyridyl)-2-oxo-2-[rac-(2R,5S)-5-methyl-2-[2-[rac-(3S)-1-methylpyrrolidin-3-yl]indazol-5-yl]-1-piperidyl]acetamide] | < 1 | – | A (an IC50 ratio greater than or equal to 10 fold)
17 | 0.05 to 0.5 | 0.05 to 0.5 | 0.1 to 1 | 0.05 to 0.5 | – | < 0.1 | CCc1cc(NC(=O)C(=O)N2C[C@@H](C)[C@@H](OC(C)C)C[C@@H]2c2ccc3scnc3c2)cnc1N (racemic) [Compound 1094, N-(6-Amino-5-ethyl-3-pyridyl)-2-[(2S,4R,5S)-2-(1,3-benzothiazol-5-yl)-4-isopropoxy-5-methyl-1-piperidyl]-2-oxo-acetamide] | < 1 | – | A (an IC50 ratio greater than or equal to 10 fold)
